In patent US9833497B2, “Human originated EGF domain proteins and use of the same” (CHENGDU SOURCEBIO LIMITED-LIABILITY COMPANY, priority 2013, dated 2017):

Legend:
Assay type in all cases: cell-based
E. coli BL21 = assay: MIC against Gram-negative bacteria: E. coli BL21; details: for MIC: 10 h cultivation at 37° C.
Description: (§1) 1. Gram-negative bacteria, such as E. coli BL21, Pseudomonas aeruginosa, Klebsiella pneumonia, Enterobacter cloacae, Aeromonas hydrophila, Citrobacter diversus, Moraxella catarrhalis, Proteus mirabilis, Proteus vulgaris, Serratia marcescens, etc were streaked on solid LB medium and cultured respectively. Then, typical clones were picked, inoculated into common liquid LB medium respectively, and cultured at 37° C. with shaking at 185 rpm until the McFarland specific turbidity was 0.5. The bacterial culture of each of Gram-negative bacteria was centrifuged at 4000×g for 3 min, the supernatant was discarded, and the thalli were resuspended with fresh LB medium.
(§2) 2. The above-mentioned bacterial suspensions were diluted and inoculated into 96-well plates with the final concentration of the bacterial suspension being 5×10^5 CFU/mL per well.
(§3) 3. Each of the purified human-originated EGF domain proteins (PRT1 to PRT1498 in Table 1) was added to each of the above wells and subjected to two-fold serial dilution in concentration. Three parallel wells were set up for each concentration in the gradient.
(§4) 4. The above-mentioned 96-well plates were placed and cultured at 37° C. in shaking incubator shaking at 175 rpm. […] The minimal inhibitory concentration MIC is defined as the lowest concentration of the recombinant protein at which there is no growth of the bacteria.

Pseudomonas aeruginosa = assay: MIC against Gram-negative bacteria: Pseudomonas aeruginosa; details: for MIC: P. aeruginosa, 10 h cultivation at 37° C.
Description: as §1, §2, §3, §4

Klebsiella pneumonia = assay: MIC against Gram-negative bacteria: Klebsiella pneumonia; details: for MIC: K. pneumonia, 10 h cultivation at 37° C.
Description: as §1, §2, §3, §4

Serratia marcescens = assay: MIC against Gram-negative bacteria: Serratia marcescens; details: for MIC: S. marcescens, 10 h cultivation at 37° C.
Description: as §1, §2, §3, §4

Proteus mirabilis = assay: MIC against Gram-negative bacteria: Proteus mirabilis; details: for MIC: P. mirabilis, 10 h cultivation at 37° C.
Description: as §1, §2, §3, §4

Aeromonas hydrophila = assay: MIC against Gram-negative bacteria: Aeromonas hydrophila; details: for MIC: A. hydrophila, 10 h cultivation at 37° C.
Description: as §1, §2, §3, §4

E. coli DH5α = assay: Antibacterial activity: MIC and growth curve against E. coli DH5α in 96-well plate; details: minimal inhibitory concentration against E. coli DH5α; 96-well plate, 5×10^5 CFU/mL, 37° C., judged after 8 h
Description: 1. E. coli DH5α was exemplified. E. coli DH5α was streaked and cultured on LB solid medium. Then, a typical clone was picked and inoculated into common LB liquid medium, cultured at 37° C. with shaking at 185 rpm until the logarithmic growth phase was reached (OD600 of about 0.5). The bacterial culture was centrifuged at 4000×g for 3 min, the supernatant was discarded, and the thalli were resuspended with fresh LB medium.
2. The above-mentioned bacterial suspension was diluted and inoculated into a 96-well plate with the total volume of 100 μL per well and a bacterial count of 5×10^5 CFU/mL.
3. The recombinant protein hF VII-EGF1 was added to the above-mentioned wells with the final protein concentration in the well of the highest protein concentration being 50 μg/mL. Basing on this final concentration, a two-fold serial dilution was performed till a protein concentration gradient consisting of 50, 25, and 12.5 μg/mL was set up. Three parallel wells were set up for each concentration in the gradient.
as §4, with “plate was” for “plates were”, “rpm. Samples were taken every 30 min, the absorbance values were determined at 600 nm wavelength under a ultra violet spectrophotometer, and an inhibition curve was plotted.” for “rpm.”
According to the experimental procedures in Example 14, the minimal inhibitory concentrations (MIC, μg/mL) of the other human-originated EGF domain proteins (PRT2 to PRT1498 in Table 1) for E. coli DH5α were determined.

Enterobacter cloacae = assay: MIC against Gram-negative bacteria: Enterobacter cloacae; details: for MIC: E. cloacae, 10 h cultivation at 37° C.
Description: as §1, §2, §3, §4

Citrobacter diversus = assay: MIC against Gram-negative bacteria: Citrobacter diversus; details: for MIC: C. diversus, 10 h cultivation at 37° C.
Description: as §1, §2, §3, §4

Proteus vulgaris = assay: MIC against Gram-negative bacteria: Proteus vulgaris; details: for MIC: P. vulgaris, 10 h cultivation at 37° C.
Description: as §1, §2, §3, §4

Moraxella catarrhalis = assay: MIC against Gram-negative bacteria: Moraxella catarrhalis; details: for MIC: M. catarrhalis, 10 h cultivation at 37° C.
Description: as §1, §2, §3, §4

[1] = 96-well plate, 5×10^5 CFU/mL, 37° C., 10 h

What does the source list for “PRT659 (DADECVIFGPGLCPNGRCLNTVPGYVCLCNPGFHYDASHKKCE; listed as Homo sapiens)”?
MIC E. coli BL21 (E. coli BL21; [1]): 50 µg/mL; MIC P. aeruginosa (Pseudomonas aeruginosa; [1]): 25 µg/mL; MIC K. pneumonia (Klebsiella pneumonia; [1]): 12.5 µg/mL; MIC S. marcescens (Serratia marcescens; [1]): 50 µg/mL; MIC P. mirabilis (Proteus mirabilis; [1]): 12.5 µg/mL; MIC A. hydrophila (Aeromonas hydrophila; [1]): 50 µg/mL; MIC (E. coli DH5α): 25 µg/mL; MIC E. cloacae (Enterobacter cloacae; [1]): 25 µg/mL; MIC C. diversus (Citrobacter diversus; [1]): 25 µg/mL; MIC P. vulgaris (Proteus vulgaris; [1]): 25 µg/mL; MIC M. catarrhalis (Moraxella catarrhalis; [1]): 25 µg/mL

Which results are given for “PRT16 (EKSPCQPNPCHGAAPCRVLPEGGAQCECPLGREGTFCQ; listed as Homo sapiens)”?
MIC (μg/mL) E. coli BL21 (E. coli BL21; E. coli BL21, 96-well plate, 5×10^5 CFU/mL, 37° C., 10 h): 12.5 µg/mL; MIC (μg/mL) P. aeruginosa (Pseudomonas aeruginosa; Pseudomonas aeruginosa, 96-well plate, 5×10^5 CFU/mL, 37° C., 10 h): 25 µg/mL; MIC (μg/mL) K. pneumonia (Klebsiella pneumonia; Klebsiella pneumonia, 96-well plate, 5×10^5 CFU/mL, 37° C., 10 h): 12.5 µg/mL; MIC (μg/mL) S. marcescens (Serratia marcescens; Serratia marcescens, 96-well plate, 5×10^5 CFU/mL, 37° C., 10 h): 25 µg/mL; MIC (μg/mL) P. mirabilis (Proteus mirabilis; Proteus mirabilis, 96-well plate, 5×10^5 CFU/mL, 37° C., 10 h): 50 µg/mL; MIC (μg/mL) A. hydrophila (Aeromonas hydrophila; Aeromonas hydrophila, 96-well plate, 5×10^5 CFU/mL, 37° C., 10 h): 50 µg/mL; MIC (E. coli DH5α): 12.5 µg/mL; MIC (μg/mL) E. cloacae (Enterobacter cloacae; Enterobacter cloacae, 96-well plate, 5×10^5 CFU/mL, 37° C., 10 h): 12.5 µg/mL; MIC (μg/mL) C. diversus (Citrobacter diversus; Citrobacter diversus, 96-well plate, 5×10^5 CFU/mL, 37° C., 10 h): 25 µg/mL; MIC (μg/mL) P. vulgaris (Proteus vulgaris; Proteus vulgaris, 96-well plate, 5×10^5 CFU/mL, 37° C., 10 h): 25 µg/mL; MIC (μg/mL) M. catarrhalis (Moraxella catarrhalis; Moraxella catarrhalis, 96-well plate, 5×10^5 CFU/mL, 37° C., 10 h): 12.5 µg/mL

“PRT984 (SNASCAAAPCLHGGSCRPAPLAPFFRCACAQGWTGPRCE; listed as Homo sapiens)” was tested. Which MIC (E. coli BL21; E. coli BL21) did it give?
Its MIC is 12.5 µg/mL.

What about the MIC (Pseudomonas aeruginosa) of the same substance?
The MIC was 25 µg/mL.

What about the MIC (Klebsiella pneumonia) of the same substance?
The MIC was 50 µg/mL.

What about the MIC (Serratia marcescens) of the same substance?
Its MIC is 12.5 µg/mL.

What about the MIC (Proteus mirabilis) of the same substance?
Its MIC is 50 µg/mL.

And the MIC (Aeromonas hydrophila)?
Its MIC is 12.5 µg/mL.

And the MIC (E. coli DH5α)?
Its MIC is 50 µg/mL.

What about the MIC (Enterobacter cloacae) of the same substance?
Its MIC is 25 µg/mL.

What about the MIC (Citrobacter diversus) of the same substance?
Its MIC is 12.5 µg/mL.

What about the MIC (Proteus vulgaris) of the same substance?
Its MIC is 25 µg/mL.

What about the MIC (Moraxella catarrhalis) of the same substance?
The MIC was 12.5 µg/mL.

What does the source list for “PRT607 (CDCHPEGSLSLQCKDDGRCECREGFVGNRCDQCEENYFYNRSWPGCQE; listed as Homo sapiens)”?
MIC E. coli BL21 (E. coli BL21; [1]): 25 µg/mL; MIC P. aeruginosa (Pseudomonas aeruginosa; [1]): 12.5 µg/mL; MIC K. pneumonia (Klebsiella pneumonia; [1]): 25 µg/mL; MIC S. marcescens (Serratia marcescens; [1]): 50 µg/mL; MIC P. mirabilis (Proteus mirabilis; [1]): 50 µg/mL; MIC A. hydrophila (Aeromonas hydrophila; [1]): 12.5 µg/mL; MIC (E. coli DH5α): 50 µg/mL; MIC E. cloacae (Enterobacter cloacae; [1]): 50 µg/mL; MIC C. diversus (Citrobacter diversus; [1]): 50 µg/mL; MIC P. vulgaris (Proteus vulgaris; [1]): 12.5 µg/mL; MIC M. catarrhalis (Moraxella catarrhalis; [1]): 12.5 µg/mL

Which results are given for “PRT1000 (ELGGCISAPCAHGGTCYPQPSGYNCTCPTGYTGPTCS; listed as Homo sapiens)”?
MIC (E. coli BL21; E. coli BL21): 12.5 µg/mL; MIC (Pseudomonas aeruginosa): 50 µg/mL; MIC (Klebsiella pneumonia): 25 µg/mL; MIC (Serratia marcescens): 50 µg/mL; MIC (Proteus mirabilis): 12.5 µg/mL; MIC (Aeromonas hydrophila): 25 µg/mL; MIC (E. coli DH5α): 50 µg/mL; MIC (Enterobacter cloacae): 12.5 µg/mL; MIC (Citrobacter diversus): 50 µg/mL; MIC (Proteus vulgaris): 25 µg/mL; MIC (Moraxella catarrhalis): 25 µg/mL
